Literature values, collected in patent US20130281523A1, “LOW DOSE CANNABINOID MEDICAMENTS” (priority 2010, published 2013).

Tested on: rat model of sleep apnea
Conditions: 10 mg/kg intraperitoneal injection

CCCCCc1cc(O)c2c(c1)OC(C)(C)[C@@H]1CCC(C)=C[C@@H]21 [Dronabinol, Delta-9-tetrahydrocannabinol]
Breathing cessation during non-REM (NREM) sleep: reduced breathing cessation
